Measurements published in patent EP2487185A1, “Hexapeptide with improved activity in the repair of cellular DNA of dermal cells” (Clinuvel Pharmaceuticals Limited, priority 2011, dated 2012).
Non-standard residues stand in square brackets, D forms with d. Nle = CCCC[C@H](N)C(=O)O

Experiments:
human melanocytes = assay: DNA damage as measured by 8-oxo-dG (FITC-conjugated 8-oxo-dG antibody immunofluorescence); type: cell-based; details: for 8-oxo-dG, Arbitrary units: 37 Celsius, mean fluorescence intensity
Excerpt: DNA damage of cultured melanocytes following UV irradiation leads to consistent levels of photoproducts such as 8-oxo-dG. It is well established in the art (dermal carcinogenesis) that 8-oxodG is a major form of UV induced oxidative DNA damage, which results from the generation of reactive oxygen species (ROS). The induction of 8-oxodG by 8-oxo-dGTP can be inhibited by pyrophosphohydrolases (8-[…]) that convert it to 8-oxo-dGMP. To elucidate the involvement of 8-oxo-[…] in carcinogenesis, an assay of the 8-oxo-[…] activity was used (Sigma Chemical Co. (USA) as well as a conjugated 8-oxo-dG antibodies (OxoDNA Assay Kit; Calbiochem/EMD Biosciences). Melanocytes were plated onto coverslips, and treated 48 h thereafter for 4 days prior to, and immediately after irradiation with 0 or 105 mJ/cm^2 UV, 0.1-10.0 nM α-MSH, with 0 (control) or 0.1-10.0 nM α-MSH, or 0.001-10 nM NDP-MSH or 0.001-10.0 nM CUV 9900. Two hours after UV exposure, cells were fixated with 4% paraformaldehyde in PBS, hydrated in increasing concentrations of cold methanol, and permeabilized in 99% methanol for 30 min at 4 °C. Melanocytes were incubated in blocking solution at 37 °C for 1 h and then with FITC-conjugated 8-oxo-dG antibody, or mouse IgG as a negative control, at 37 °C for 1 h. The IgG controls were then incubated with FITC-conjugated anti-mouse antibody. Immunofluorescence was detected using a microscope with FITC filters. Data were expressed as the mean fluorescence intensity ±S.E., determined using the densitometry values from 6-8 randomly obtained images, using the computer assisted program Alpha Inotech Imaging System and the AlphaEase FC StandAlone Software.

Melanocytes = assay: DNA damage as measured by cyclobutane pyrimidine dimers (CPD), flow cytometry; type: cell-based, human; details: 48 h after 105 mJ/cm^2 UV; 10 nM α-MSH, 1 nM NDP-MSH or 1 nM CUV9900, 4 days prior to and 2 days after UV
Protocol: Cyclobutane pyrimidine dimers (CPD), the major determinant of UV induced DNA photoproducts, were detected using flow cytometry analysis.
Melanocytes were pretreated with 0 (control), 10 nM α-MSH or 1 nM NDP-MSH or 1 nM CUV9900 for 4 days prior to, and 2 days after exposure to 105 mJ/cm^2 UV, harvested 48 hours post irradiation, fixated with 70% ethanol, the DNA denatured with 1N HCl/0.2 mg/ml pepsin, then renaturated with sodium tetraborate. Melanocytes were blocked and incubated overnight at 4°C with the anti-CPD antibody (diluted 1:500; TDM-2 clone), then with goat anti-mouse IgG Alexa Fluor 488 (Invitrogen, Carlsbad CA) for 1 hour, and finally resuspended in PBS containing RNase A and propidium iodide. Melanocytes were analyzed on a Coulter EPICS XL flow cytometer (Beckman Coulter) using a 488nm argon ion laser A 525 band pass filter was used for the Alexa fluor 488 and a 620 band pass filter for the propidium iodide.

melanocyte strain 102b = assay: Tyrosinase activity, dose-response, 6 days treatment; type: cell-based, human
Protocol: Cell numbers as well as tyrosinase activity were then determined. Tyrosinase activity was calculated first at activity/10^6 cells, and then as % of control. Twenty-four hours prior the end of the experiment, melanocytes received ^3H-tyrosinase (0.7 µCi/ml medium). The conditioned medium from each dish was collected to be assayed for tyrosinase activity, and the cell numbers were determined using a Coulter Counter. Triplicate dishes were included in each group, and duplicate samples from each dish were assayed for tyrosinase activity. Each data point is the mean percent of control of 6 determinations/group ±S.E.

melanocyte strain 1513c = assay: Cell proliferation as a measure of stability; type: cell-based, human; details: for Cell proliferation, column 2: column 2, not defined; for Cell proliferation, Mean [1+2]: STRAIN 1513c, mean over experiments [1] and [2]
Protocol: With continued reference to Figs. 7, 8 and 9, to determine the stability of CUV9900 versus that of NDP-MSH and α-MSH, melanocytes were treated with 1 nM of each peptide, namely with CUV9900, NDP-MSH and α-MSH, for a total of 6 days, or with 1 nM peptides that were incubated for 5 hours at 37 °C prior to addition to the cultures, every other day, for a total of 6 days. Tyrosinase activity was measured at the end of treatment. In the experiments, cell number represents the mean percent of control of 3 determinations/ group ±SE, and tyrosinase activity data represent the mean percent of control of 6 determinations ±S.E. It should be noted that for the sake of reproducibility the experiment of strain 1513c of Fig. 9 was performed once more 6 months later than the experiment of Fig. 7.
Peptides were incubated at 37 degrees Celsius for 5 hours and then split into groups. Cell proliferation was a measure of stability, whereby the experiments on strain 1513c were divided in period 1 and 2 under standard conditions.

melanocytic strain 1505b = assay: UV-induced generation of hydrogen peroxide (luminol luminescence); type: cell-based, human; details: for UV-induced hydrogen peroxide generation: strain 1505b, 105 mJ/cm^2 UV, 0, 30 and 45 minutes after UV
Excerpt: With reference to Figs. 10 and 11, melanocytes were irradiated with a bank of FS 20 lamps, with 75% emission in the UVB, and 25% emission in the UVA spectra, with peak emission at 313 nm wavelength. Any emission of UVC rays from the UV source (FS 20 lamps) was blocked by Kodacel filter. Prior to irradiation, the culture medium was replaced by PBS, which was removed after UV exposure, and fresh medium added.
Melanocytes were irradiated with 105 mJ/cm^2 UV, and treated immediately while in PBS with 0, 1 nM α-MSH or 1 nM CUV9900. Generation of hydrogen peroxide, representative of reactive oxygen species (ROS), was determined by measuring the luminescence of luminol at 0, 30, and 45 min after UV exposure. Triplicate dishes were included in each group, and duplicate samples from each dish were used for measurement of hydrogen peroxide at each time point. Each data point represents the mean of 6 determinations/group ±S.E.

[1] = 75%UVB 25% UVA, 105 mJ/cm^2, 2 h after UV
[2] = STRAIN 1513c [1], Table 1, mean of columns 1-3
[3] = STRAIN 1513c [2], Table 2, mean

| Substance | less damage than UV alone (8-oxo-dG) (human melanocytes) [%] | 8-oxo-dG, Arbitrary units (human melanocytes; [1]) | 8-oxo-dG, Arbitrary units (human melanocytes; Source None (no UV irradiation)) [a.u.] | Absolute values of CPD products (CPD median fluorescence intensity) (Melanocytes) | minimal effective dose (tyrosinase activity) (melanocyte strain 102b; 6 days treatment) [pM] | stimulation of tyrosinase activity, comparison with NDP-MSH (melanocyte strain 102b; subnanomolar concentrations) | Cell proliferation, column 2 (melanocyte strain 1513c; STRAIN 1513c [1], Table 1, 1nM) | Cell proliferation, Mean (melanocyte strain 1513c; [2]) | Cell proliferation, column 2 (melanocyte strain 1513c; STRAIN 1513c [2], Table 2) | Cell proliferation, Mean (melanocyte strain 1513c; [3]) | Cell proliferation, Mean [1+2] (melanocyte strain 1513c; Table 2) | reducing the generation of hydrogen peroxide, comparison to NDP-MSH and MSH (melanocytic strain 1505b; at 45 minutes after UV) | hydrogen peroxide generation, comparison (melanocytic strain 1505b; at 45 minutes after irradiation, 1 nM, strain not given) | UV-induced hydrogen peroxide generation (melanocytic strain 1505b; 1 nM) | concentration achieving equal maximal stimulation of tyrosinase (melanocyte strain 102b; 6 days treatment) [nM] |
| --- | --- | --- | --- | --- | --- | --- | --- | --- | --- | --- | --- | --- | --- | --- | --- |
| Ac-Nle-Glu His-D-Phe-Arg-Trp-NH2 (Ac-[Nle]EH[dF]RW-NH2; SMILES CCCC[C@H](NC(C)=O)C(=O)N[C@@H](CCC(=O)O)C(=O)N[C@@H](Cc1c[nH]cn1)C(=O)N[C@H](Cc1ccccc1)C(=O)N[C@@H](CCCNC(=N)N)C(=O)N[C@@H](Cc1c[nH]c2ccccc12)C(N)=O) [CUV9900, hexapeptide, alpha-MSH analogue] | 120 | 38 a.u. | 30 | ~11.55 | 1 | greater stimulation of tyrosinase activity than NDP-MSH | 108 % of control | 110.7 % of control | 119.8 % of control | 119.9 % of control | 114.3 % of control | most effective at reducing the generation of hydrogen peroxide | lower hydrogen peroxide generation in comparison with both NDP-MSH and MSH | significant reduction of UV-induced hydrogen peroxide generation | – |
| Ac-Ser-Tyr-Ser-Nle-Glu-His-D-Phe-Arg-Trp-Gly-Lys-Pro-Val-NH2 [NDP-MSH, reference compound] | – | 39-40 a.u. | – | ~12.5 | 1 | – | 115 % of control | 112.7 % of control | 117.5 % of control | 115.0 % of control | 113.6 % of control | – | – | significant reduction of UV-induced hydrogen peroxide generation | 1 |
